In patent US9695155B2, “Herbicidal substituted pyrimidinyloxy benzene compounds” (E. I. DU PONT DE NEMOURS AND COMPANY, priority 2013, dated 2017):

Columns and labels:
pigweed [1] = test: Test A postemergence; type: in vivo, Amaranthus retroflexus; details: for Pigweed plant response rating: 125 g ai/ha
Outline: (§1)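 Pre- and postemergence greenhouse screen. Soil: loam + sand. Spray carrier: solvent mixture, non-phytotoxic, with surfactant. Post timing at 1–2 leaves, height 2–10 cm. Readout: visual injury on a 0–100 scale roughly 10 days after application, untreated plants as reference.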

giant foxtail [2] = test: Test A postemergence; type: in vivo, Setaria faberii; details: for Foxtail, Giant plant response rating: 125 g ai/ha
Outline: as §1

barnyardgrass [3] = test: Test A postemergence; type: in vivo, Echinochloa crus-galli; details: for Barnyardgrass plant response rating: 125 g ai/ha
Outline: as §1

ragweed [4] = test: Test A preemergence; type: in vivo, Ambrosia elatior; details: for Plant response rating, Ragweed / Ragweed plant response rating: 0 to 100 scale where 0 is no effect and 100 is complete control; for Ragweed plant response rating: 500 g ai/ha
Outline: as §1

pigweed [5] = test: Test A preemergence; type: in vivo, Amaranthus retroflexus; details: for Plant response rating, Pigweed / Pigweed plant response rating: 0 to 100 scale where 0 is no effect and 100 is complete control; for Pigweed plant response rating: 500 g ai/ha
Outline: as §1

barnyardgrass [6] = test: Test A preemergence; type: in vivo, Echinochloa crus-galli; details: for Plant response rating, Barnyardgrass / Barnyardgrass plant response rating: 0 to 100 scale where 0 is no effect and 100 is complete control; for Barnyardgrass plant response rating: 500 g ai/ha
Outline: as §1

sedge, umbrella = test: Test B flooded paddy test; type: in vivo, Cyperus difformis; details: Flood, 250 g ai/ha; 0 to 100 scale where 0 is no effect and 100 is complete control
Outline: (§2)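 Flooded to 3 cm at the 2-leaf stage, pots received compound through the paddy water and were kept at that depth under greenhouse conditions. After 13–15 days, effect was rated by eye relative to controls, 0 = none and 100 = complete control.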

Italian ryegrass [7] = test: Test A preemergence; type: in vivo, Lolium multiflorum; details: for Plant response rating, Ryegrass, Italian / Ryegrass, Italian plant response rating: 0 to 100 scale where 0 is no effect and 100 is complete control; for Ryegrass, Italian plant response rating: 500 g ai/ha
Outline: as §1

galium = test: Test A postemergence; type: in vivo, Galium aparine; details: for Galium plant response rating: 125 g ai/ha
Outline: as §1

corn = test: Test A postemergence; type: in vivo, Zea mays; details: for Corn plant response rating: 125 g ai/ha
Outline: as §1

giant foxtail [8] = test: Test A preemergence; type: in vivo, Setaria faberii; details: for Plant response rating, Foxtail, Giant / Foxtail, Giant plant response rating: 0 to 100 scale where 0 is no effect and 100 is complete control; for Foxtail, Giant plant response rating: 500 g ai/ha
Outline: as §1

kochia [9] = test: Test A preemergence; type: in vivo, Kochia scoparia; details: for Plant response rating, Kochia / Kochia plant response rating: 0 to 100 scale where 0 is no effect and 100 is complete control; for Kochia plant response rating: 500 g ai/ha
Outline: as §1

barnyardgrass [10] = test: Test B flooded paddy test; type: in vivo, Echinochloa crus-galli; details: Flood, 250 g ai/ha; 0 to 100 scale where 0 is no effect and 100 is complete control
Outline: as §2

blackgrass = test: Test A postemergence; type: in vivo, Alopecurus myosuroides; details: for Blackgrass plant response rating: 125 g ai/ha
Outline: as §1

rice = test: Test B flooded paddy test; type: in vivo, Oryza sativa; details: Flood, 250 g ai/ha; 0 to 100 scale where 0 is no effect and 100 is complete control
Outline: as §2

ragweed [11] = test: Test A postemergence; type: in vivo, Ambrosia elatior; details: for Ragweed plant response rating: 125 g ai/ha
Outline: as §1

Italian ryegrass [12] = test: Test A postemergence; type: in vivo, Lolium multiflorum; details: for Ryegrass, Italian plant response rating: 125 g ai/ha
Outline: as §1

kochia [13] = test: Test A postemergence; type: in vivo, Kochia scoparia; details: for Kochia plant response rating: 125 g ai/ha
Outline: as §1

Heteranthera limosa = test: Test B flooded paddy test; type: in vivo; details: Flood, 250 g ai/ha; 0 to 100 scale where 0 is no effect and 100 is complete control
Outline: as §2

wheat = test: Test A postemergence; type: in vivo, Triticum aestivum; details: for Wheat plant response rating: 125 g ai/ha
Outline: as §1

[14] = 31 g ai/ha, 0 to 100 scale, 0 no effect, 100 complete control
[15] = 0 to 100 scale where 0 is no effect and 100 is complete control
[16] = 31 g ai/ha, visual, approximately 10 days
[17] = 500 g ai/ha, 0 to 100 scale where 0 is no effect and 100 is complete control

Row | SMILES | Pigweed plant response rating (pigweed [1]; [15]) | Foxtail, Giant plant response rating (giant foxtail [2]; [15]) | Barnyardgrass plant response rating (barnyardgrass [3]; [15]) | Plant response rating, Ragweed (ragweed [4]; 125 g ai/ha) | Plant response rating, Pigweed (pigweed [5]; 125 g ai/ha) | Plant response rating, Barnyardgrass (barnyardgrass [6]; 125 g ai/ha) | Plant response rating, Sedge, Umbrella (sedge, umbrella) | Plant response rating, Ryegrass, Italian (Italian ryegrass [7]; 125 g ai/ha) | Galium plant response rating (galium; [15]) | Corn plant response rating (corn; [15]) | Plant response rating, Foxtail, Giant (giant foxtail [8]; 125 g ai/ha) | Plant response rating, Kochia (kochia [9]; 125 g ai/ha) | Plant response rating, Barnyardgrass (barnyardgrass [10]) | Blackgrass plant response rating (blackgrass; [15]) | Plant response rating, Rice (rice) | Ragweed plant response rating (ragweed [11]; [15]) | Ryegrass, Italian plant response rating (Italian ryegrass [12]; [15]) | Kochia plant response rating (kochia [13]; [15]) | Plant response rating, Ducksalad (Heteranthera limosa) | Wheat plant response rating (wheat; [15]) | further results
1 | FCc1cccc(Oc2ncc(Br)cn2)c1-n1cc(Br)cn1 [Compound 125] | 70 | 80 | 90 | 10 | 100 | 80 | 70 | 20 | 90 | 50 | 100 | 50 | 0 | 80 | 0 | 10 | 10 | 40 | 70 | 20 | Plant response rating, Pigweed (pigweed [1]; [14]): 30; Plant response rating, Foxtail, Giant (giant foxtail [2]; [14]): 0; Plant response rating, Barnyardgrass (barnyardgrass [3]; [14]): 0; Ragweed plant response rating (0 to 100 scale) (ragweed [4]; 31 g ai/ha): 0; Pigweed plant response rating (0 to 100 scale) (pigweed [5]; 31 g ai/ha): 70; Barnyardgrass plant response rating (0 to 100 scale) (barnyardgrass [6]; 31 g ai/ha): 10; Ryegrass, Italian plant response rating (0 to 100 scale) (Italian ryegrass [7]; 31 g ai/ha): 0; Plant response rating, Galium (galium; [14]): 20; Plant response rating, Corn (corn; [14]): 20; Foxtail, Giant plant response rating (0 to 100 scale) (giant foxtail [8]; 31 g ai/ha): 20; Kochia plant response rating (0 to 100 scale) (kochia [9]; 31 g ai/ha): 20; Plant response rating, Blackgrass (blackgrass; [14]): 40; Plant response rating, Ragweed (ragweed [11]; [14]): 0; Plant response rating, Ryegrass, Italian (Italian ryegrass [12]; [14]): 0; Plant response rating, Kochia (kochia [13]; [14]): 40; Plant response rating, Wheat (wheat; [14]): 0
2 | Fc1cnc(Oc2cccc(F)c2-n2cc(OCC(F)(F)F)cn2)nc1 [Compound 126] | 80 | 50 | 40 | 20 | 100 | 80 | 20 | 0 | 60 | 20 | 100 | 90 | 0 | 20 | 0 | 50 | 10 | 100 | 65 | 10 | Plant response rating, Pigweed (pigweed [1]; [14]): 50; Plant response rating, Foxtail, Giant (giant foxtail [2]; [14]): 10; Plant response rating, Barnyardgrass (barnyardgrass [3]; [14]): 10; Ragweed plant response rating (0 to 100 scale) (ragweed [4]; 31 g ai/ha): 0; Pigweed plant response rating (0 to 100 scale) (pigweed [5]; 31 g ai/ha): 80; Barnyardgrass plant response rating (0 to 100 scale) (barnyardgrass [6]; 31 g ai/ha): 10; Ryegrass, Italian plant response rating (0 to 100 scale) (Italian ryegrass [7]; 31 g ai/ha): 0; Plant response rating, Galium (galium; [14]): 20; Plant response rating, Corn (corn; [14]): 0; Foxtail, Giant plant response rating (0 to 100 scale) (giant foxtail [8]; 31 g ai/ha): 50; Kochia plant response rating (0 to 100 scale) (kochia [9]; 31 g ai/ha): 40; Plant response rating, Blackgrass (blackgrass; [14]): 10; Plant response rating, Ragweed (ragweed [11]; [14]): 10; Plant response rating, Ryegrass, Italian (Italian ryegrass [12]; [14]): 0; Plant response rating, Kochia (kochia [13]; [14]): 40; Plant response rating, Wheat (wheat; [14]): 0
3 | FC(F)(F)COc1cnn(-c2c(Br)cccc2Oc2ncc(Cl)cn2)c1 [Compound 128] | 100 | 60 | 50 | 0 | 100 | 70 | 85 | 10 | 80 | 30 | 100 | 70 | 0 | 40 | 0 | 20 | 30 | 80 | 85 | 10 | Plant response rating, Pigweed (pigweed [1]; [14]): 80; Plant response rating, Foxtail, Giant (giant foxtail [2]; [14]): 20; Plant response rating, Barnyardgrass (barnyardgrass [3]; [14]): 10; Plant response rating, Ragweed (ragweed [4]; [16]): 0; Plant response rating, Pigweed (pigweed [5]; [16]): 100; Plant response rating, Barnyardgrass (barnyardgrass [6]; [16]): 10; Plant response rating, Ryegrass, Italian (Italian ryegrass [7]; [16]): 0; Plant response rating, Galium (galium; [14]): 50; Plant response rating, Corn (corn; [14]): 0; Plant response rating, Foxtail, Giant (giant foxtail [8]; [16]): 60; Plant response rating, Kochia (kochia [9]; [16]): 0; Plant response rating, Blackgrass (blackgrass; [14]): 30; Plant response rating, Ragweed (ragweed [11]; [14]): 0; Plant response rating, Ryegrass, Italian (Italian ryegrass [12]; [14]): 0; Plant response rating, Kochia (kochia [13]; [14]): 50; Plant response rating, Wheat (wheat; [14]): 0
4 | CCCc1cnc(Oc2cccc(C#N)c2-n2cc(Br)cn2)nc1 [Compound 131] | 0 | 0 | 0 | 0 | 0 | 0 | 0 | 0 | 0 | 0 | 0 | 0 | 0 | 0 | 0 | 0 | 0 | 0 | 0 | 0 | Plant response rating, Pigweed (pigweed [1]; [17]): 0; Plant response rating, Foxtail, Giant (giant foxtail [2]; [17]): 0; Plant response rating, Barnyardgrass (barnyardgrass [3]; [17]): 0; Ragweed plant response rating (ragweed [4]): 0; Pigweed plant response rating (pigweed [5]): 0; Barnyardgrass plant response rating (barnyardgrass [6]): 0; Ryegrass, Italian plant response rating (Italian ryegrass [7]): 0; Plant response rating, Galium (galium; [17]): 0; Plant response rating, Corn (corn; [17]): 0; Foxtail, Giant plant response rating (giant foxtail [8]): 0; Kochia plant response rating (kochia [9]): 0; Plant response rating, Blackgrass (blackgrass; [17]): 0; Plant response rating, Ragweed (ragweed [11]; [17]): 0; Plant response rating, Ryegrass, Italian (Italian ryegrass [12]; [17]): 0; Plant response rating, Kochia (kochia [13]; [17]): 0; Plant response rating, Wheat (wheat; [17]): 0
5 | CS(=O)(=O)c1cccc(Oc2ncc(Cl)cn2)c1-n1cc(Br)cn1 [Compound 142] | 0 | 0 | 0 | 0 | 0 | 0 | 0 | 0 | 0 | 0 | 0 | 0 | 0 | 0 | 0 | 0 | 0 | 0 | 0 | 0 | Plant response rating, Pigweed (pigweed [1]; [17]): 0; Plant response rating, Foxtail, Giant (giant foxtail [2]; [17]): 0; Plant response rating, Barnyardgrass (barnyardgrass [3]; [17]): 0; Ragweed plant response rating (ragweed [4]): 20; Pigweed plant response rating (pigweed [5]): 0; Barnyardgrass plant response rating (barnyardgrass [6]): 0; Ryegrass, Italian plant response rating (Italian ryegrass [7]): 0; Plant response rating, Galium (galium; [17]): 0; Plant response rating, Corn (corn; [17]): 0; Foxtail, Giant plant response rating (giant foxtail [8]): 0; Kochia plant response rating (kochia [9]): 50; Plant response rating, Blackgrass (blackgrass; [17]): 0; Plant response rating, Ragweed (ragweed [11]; [17]): 0; Plant response rating, Ryegrass, Italian (Italian ryegrass [12]; [17]): 0; Plant response rating, Kochia (kochia [13]; [17]): 70; Plant response rating, Wheat (wheat; [17]): 0
